Reference: ChEMBL document CHEMBL4364313, “Synthesis of new 5,6,7,8-tetrahydropyrido[1,2-c]pyrimidine derivatives with rigidized tryptamine moiety as potential SSRI and 5-HT1A receptor ligands” (Eur J Med Chem, 2019)
Calls of active or inactive are those of the source. The rule behind the calls is not given here.

Tests used:
D(2) dopamine receptor = D(2) dopamine receptor (Homo sapiens, UniProt P14416); experiment: biochemical
Description: Displacement of [3H]-raclopride from human D2 receptor expressed in HEK cells incubated for 1 hr by Cheng-Prusoff analysis based microbeta scintillation counting method

Mus musculus [1] = experiment: Induction of hypothermia in CD-1 mouse assessed as change in body temperature at 5 mg/kg, ip treated for 30 mins and measured after 30 mins by thermometric method; type: functional, organism-based
[2] = biological target: Serotonin transporter (SERT); experiment: biochemical
Mus musculus [3] = experiment: Induction of hypothermia in CD-1 mouse assessed as change in body temperature at 5 mg/kg, ip treated for 90 mins and measured after 30 mins by thermometric method; type: functional, organism-based
[4] = biological target: 5-hydroxytryptamine receptor 7 (Homo sapiens, UniProt P34969); experiment: biochemical
Chain of 5-hydroxytryptamine receptor 7 (P34969 whole entry): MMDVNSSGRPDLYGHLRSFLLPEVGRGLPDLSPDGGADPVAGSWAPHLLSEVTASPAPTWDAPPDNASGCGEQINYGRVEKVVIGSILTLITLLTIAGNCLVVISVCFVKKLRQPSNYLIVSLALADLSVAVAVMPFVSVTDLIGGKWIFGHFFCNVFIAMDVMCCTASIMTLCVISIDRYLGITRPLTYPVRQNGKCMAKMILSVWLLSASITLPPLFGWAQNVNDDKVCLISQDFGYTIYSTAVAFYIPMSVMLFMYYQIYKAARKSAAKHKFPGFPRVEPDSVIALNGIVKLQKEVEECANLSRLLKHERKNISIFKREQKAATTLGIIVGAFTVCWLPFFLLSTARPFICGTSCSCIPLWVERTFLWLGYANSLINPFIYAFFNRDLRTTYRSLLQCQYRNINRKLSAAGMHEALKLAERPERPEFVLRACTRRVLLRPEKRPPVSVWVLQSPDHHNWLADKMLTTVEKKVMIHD
Description: Displacement of [3H]-5-CT from human 5HT7 receptor expressed in HEK cells incubated for 1 hr by Cheng-Prusoff analysis based microbeta scintillation counting method

[5] = biological target: 5-hydroxytryptamine receptor 2A (Homo sapiens, UniProt P28223); experiment: Displacement of [3H]ketanserin from human 5HT2A receptor expressed in HEK293 cells incubated for 1.5 hrs by Cheng-Prusoff analysis based microbeta scintillation counting method; type: cell-based
Chain of 5-hydroxytryptamine receptor 2A (P28223 whole entry): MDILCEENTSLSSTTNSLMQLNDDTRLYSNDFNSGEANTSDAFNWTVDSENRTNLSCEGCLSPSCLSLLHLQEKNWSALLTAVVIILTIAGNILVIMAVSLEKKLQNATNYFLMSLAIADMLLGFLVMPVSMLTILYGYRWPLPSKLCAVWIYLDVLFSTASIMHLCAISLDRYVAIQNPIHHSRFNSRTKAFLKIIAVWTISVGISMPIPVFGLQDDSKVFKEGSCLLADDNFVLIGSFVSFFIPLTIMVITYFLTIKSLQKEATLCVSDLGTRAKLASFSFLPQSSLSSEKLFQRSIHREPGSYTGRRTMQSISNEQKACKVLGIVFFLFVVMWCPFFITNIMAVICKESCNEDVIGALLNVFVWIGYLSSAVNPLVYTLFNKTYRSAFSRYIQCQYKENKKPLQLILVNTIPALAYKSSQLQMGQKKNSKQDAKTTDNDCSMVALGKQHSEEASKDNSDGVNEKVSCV

Mus musculus [6] = experiment: Induction of hypothermia in CD-1 mouse assessed as change in body temperature at 20 mg/kg, ip treated for 30 mins and measured after 30 mins by thermometric method; type: functional, organism-based
[7] = Half life in human liver microsomes at 1 uM measured for 5 to 60 mins under shaking condition in presence of NADPH by LCMS analysis; type: ADME, Microsome
Mus musculus [8] = experiment: Inhibition of 8-OH-DPAT-induced hypothermia in CD-1 mouse assessed change in body temperature at 20 mg/kg, ip pretreated for 45 mins followed by 8-OH-DPAT addition and measured after 15 mins by thermometric method; type: functional, organism-based
Mus musculus [9] = experiment: Inhibition of 8-OH-DPAT-induced hypothermia in CD-1 mouse assessed change in body temperature at 20 mg/kg, ip pretreated for 45 mins followed by 8-OH-DPAT addition and measured after 60 mins by thermometric method; type: functional, organism-based
Mus musculus [10] = experiment: Inhibition of 8-OH-DPAT-induced hypothermia in CD-1 mouse assessed change in body temperature at 20 mg/kg, ip pretreated for 45 mins followed by 8-OH-DPAT addition and measured after 45 mins by thermometric method; type: functional, organism-based
Mus musculus [11] = experiment: Induction of hypothermia in CD-1 mouse assessed as change in body temperature at 5 mg/kg, ip treated for 60 mins and measured after 30 mins by thermometric method; type: functional, organism-based
Mus musculus [12] = experiment: Induction of hypothermia in CD-1 mouse assessed as change in body temperature at 20 mg/kg, ip treated for 120 mins and measured after 30 mins by thermometric method; type: functional, organism-based
Mus musculus [13] = experiment: Inhibition of 8-OH-DPAT-induced hypothermia in CD-1 mouse assessed change in body temperature at 20 mg/kg, ip pretreated for 45 mins followed by 8-OH-DPAT addition and measured after 30 mins by thermometric method; type: functional, organism-based
Mus musculus [14] = experiment: Induction of hypothermia in CD-1 mouse assessed as change in body temperature at 20 mg/kg, ip treated for 60 mins and measured after 30 mins by thermometric method; type: functional, organism-based
Mus musculus [15] = experiment: Induction of hypothermia in CD-1 mouse assessed as change in body temperature at 5 mg/kg, ip treated for 120 mins and measured after 30 mins by thermometric method; type: functional, organism-based
[16] = biological target: 5-hydroxytryptamine receptor 6 (Homo sapiens, UniProt P50406); experiment: biochemical
Chain of 5-hydroxytryptamine receptor 6 (P50406 whole entry): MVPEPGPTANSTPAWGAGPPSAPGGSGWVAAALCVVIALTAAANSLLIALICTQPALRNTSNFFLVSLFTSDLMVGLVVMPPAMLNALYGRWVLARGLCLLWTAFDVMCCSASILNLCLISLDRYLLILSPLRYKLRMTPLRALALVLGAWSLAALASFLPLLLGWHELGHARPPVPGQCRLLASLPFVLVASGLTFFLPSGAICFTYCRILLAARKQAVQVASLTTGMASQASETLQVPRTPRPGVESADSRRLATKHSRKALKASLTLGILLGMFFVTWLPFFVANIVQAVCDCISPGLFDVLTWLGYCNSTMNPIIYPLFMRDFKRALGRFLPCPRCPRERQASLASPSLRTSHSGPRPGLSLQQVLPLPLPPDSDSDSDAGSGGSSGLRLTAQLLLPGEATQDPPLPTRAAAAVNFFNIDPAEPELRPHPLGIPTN
Description: Displacement of [3H]LSD from human 5-HT6 receptor expressed in HEK cells incubated for 1 hr by Cheng-Prusoff analysis based microbeta scintillation counting method

Mus musculus [17] = experiment: Induction of hypothermia in CD-1 mouse assessed as change in body temperature at 20 mg/kg, ip treated for 90 mins and measured after 30 mins by thermometric method; type: functional, organism-based
Mus musculus [18] = organism: Mus musculus; experiment: Effect on forepaw treading in CD-1 mouse; type: ADME, organism-based; details: in vivo
Mus musculus [19] = organism: Mus musculus; experiment: Effect on forepaw treading in CD-1 mouse up to 30 mins in presence of 8-OH-DPAT; type: functional, organism-based
Mus musculus [20] = organism: Mus musculus; experiment: Effect on forepaw treading in CD-1 mouse in presence of 8-OH-DPAT; type: functional, organism-based
Mus musculus [21] = experiment: Psychoactive effect in CD-1 mouse assessed as effect on immobility time at 5 to 20 mg/kg, ip pretreated for 30 mins and measured after 6 mins by force swim test; type: ADME, organism-based; details: in vivo, 0.1 h

Chain of D(2) dopamine receptor (P14416 whole entry): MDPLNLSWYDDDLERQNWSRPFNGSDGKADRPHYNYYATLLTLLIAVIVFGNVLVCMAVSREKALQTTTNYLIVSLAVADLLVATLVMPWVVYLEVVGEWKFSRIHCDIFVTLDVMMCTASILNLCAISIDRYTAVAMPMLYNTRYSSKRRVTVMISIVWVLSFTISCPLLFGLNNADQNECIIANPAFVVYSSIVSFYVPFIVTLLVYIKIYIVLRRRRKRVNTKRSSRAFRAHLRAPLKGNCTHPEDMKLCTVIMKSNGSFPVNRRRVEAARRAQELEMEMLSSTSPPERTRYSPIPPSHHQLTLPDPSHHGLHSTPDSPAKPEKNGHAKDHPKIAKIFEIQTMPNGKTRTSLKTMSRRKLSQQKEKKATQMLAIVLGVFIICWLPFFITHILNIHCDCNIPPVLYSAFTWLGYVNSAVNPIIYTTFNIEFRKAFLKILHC

O=c1c(-c2ccccc2F)c2n(c(=O)n1CCCCN1CCCC(c3c[nH]c4ccccc34)C1)CCCC2 (centres undefined)
Ki (D(2) dopamine receptor): > 10 µM
deltaT (Mus musculus [1]): 0.2 °C
Ki [2]: 0.015 µM
deltaT (Mus musculus [3]): 0.7 °C
Ki [4]: 2.43 µM
Ki [5]: 0.325 µM
deltaT (Mus musculus [6]): -0.8 °C
half-life at 1 µM [7]: 12 min
deltaT (Mus musculus [8]): -1.6 °C
deltaT (Mus musculus [9]): -1.8 °C
deltaT (Mus musculus [10]): -1.9 °C
deltaT (Mus musculus [11]): 0.3 °C
deltaT (Mus musculus [12]): 0.7 °C
deltaT (Mus musculus [13]): -1.8 °C
deltaT (Mus musculus [14]): 0 °C
deltaT (Mus musculus [15]): 1 °C
Ki [16]: 1.03 µM
deltaT (Mus musculus [17]): 0.6 °C

O=c1c(-c2ccc(F)cc2)c2n(c(=O)n1CCCCN1CCCC(c3c[nH]c4ccc(F)cc34)C1)CCCC2 (centres undefined)
Ki (D(2) dopamine receptor): 1.05 µM
deltaT (Mus musculus [1]): 0.8 °C
Ki [2]: 0.031 µM
deltaT (Mus musculus [3]): 0.6 °C
Ki [4]: 1.11 µM
Ki [5]: 0.484 µM
deltaT (Mus musculus [6]): -0.6 °C
Activity (Mus musculus [18]): Non-Toxic
half-life at 1 µM [7]: 6.2 min
deltaT (Mus musculus [8]): -0.1 °C
deltaT (Mus musculus [9]): -0.4 °C
deltaT (Mus musculus [10]): -0.3 °C
deltaT (Mus musculus [11]): 0.8 °C
deltaT (Mus musculus [12]): 0 °C
Activity (Mus musculus [19]): Active
deltaT (Mus musculus [13]): 0.2 °C
deltaT (Mus musculus [14]): 0.1 °C
deltaT (Mus musculus [15]): 0.9 °C
Ki [16]: 0.728 µM
deltaT (Mus musculus [17]): 0.1 °C

Cc1ccccc1-c1c2n(c(=O)n(CCCCN3CCCC(c4c[nH]c5ccccc45)C3)c1=O)CCCC2 (centres undefined)
Ki [2]: 0.062 µM

COc1ccc2[nH]cc(C3CCCN(CCCCn4c(=O)c(-c5ccccc5)c5n(c4=O)CCCC5)C3)c2c1 (centres undefined)
Ki [2]: 0.102 µM

COc1ccc2[nH]cc(C3CCCN(CCCCn4c(=O)c(-c5ccccc5F)c5n(c4=O)CCCC5)C3)c2c1 (centres undefined)
Ki [2]: 0.236 µM

COc1ccccc1-c1c2n(c(=O)n(CCCCN3CCCC(c4c[nH]c5ccccc45)C3)c1=O)CCCC2 (centres undefined)
Ki [2]: 0.025 µM

O=c1c(-c2ccccc2)c2n(c(=O)n1CCCCN1CCCC(c3c[nH]c4ccccc34)C1)CCCC2 (centres undefined)
Ki (D(2) dopamine receptor): 2.35 µM
deltaT (Mus musculus [1]): 0.2 °C
Ki [2]: 0.027 µM
deltaT (Mus musculus [3]): 0.3 °C
Ki [4]: 1.09 µM
Ki [5]: 0.725 µM
deltaT (Mus musculus [6]): -0.6 °C
half-life at 1 µM [7]: 11.1 min
deltaT (Mus musculus [8]): -1.2 °C
deltaT (Mus musculus [9]): 0.7 °C
deltaT (Mus musculus [10]): -0.9 °C
deltaT (Mus musculus [11]): 0.3 °C
deltaT (Mus musculus [12]): -0.1 °C
deltaT (Mus musculus [13]): -1.1 °C
deltaT (Mus musculus [14]): 0 °C
deltaT (Mus musculus [15]): 0.8 °C
Ki [16]: 1.15 µM
deltaT (Mus musculus [17]): -0.2 °C

O=c1c(-c2ccc(Cl)cc2)c2n(c(=O)n1CCCCN1CCCC(c3c[nH]c4ccccc34)C1)CCCC2 (centres undefined)
Ki (D(2) dopamine receptor): 1.65 µM
deltaT (Mus musculus [1]): 0.1 °C
Ki [2]: 0.03 µM
deltaT (Mus musculus [3]): -0.1 °C
Ki [4]: 1.38 µM
Ki [5]: 1.49 µM
deltaT (Mus musculus [6]): 0.3 °C
deltaT (Mus musculus [8]): -1.1 °C
deltaT (Mus musculus [9]): -1.2 °C
deltaT (Mus musculus [10]): -1.2 °C
deltaT (Mus musculus [11]): 0.3 °C
deltaT (Mus musculus [12]): 0.3 °C
deltaT (Mus musculus [13]): -1.1 °C
deltaT (Mus musculus [14]): 0.7 °C
deltaT (Mus musculus [15]): 0.2 °C
Ki [16]: 1.32 µM
deltaT (Mus musculus [17]): 0.5 °C

COc1ccccc1-c1c2n(c(=O)n(CCCCN3CCCC(c4c[nH]c5ccc(F)cc45)C3)c1=O)CCCC2 (centres undefined)
Ki [2]: 0.04 µM

O=c1c(-c2ccccc2Cl)c2n(c(=O)n1CCCCN1CCCC(c3c[nH]c4ccc(F)cc34)C1)CCCC2 (centres undefined)
Ki [2]: 0.047 µM

COc1ccc(-c2c3n(c(=O)n(CCCCN4CCCC(c5c[nH]c6ccccc56)C4)c2=O)CCCC3)cc1 (centres undefined)
Ki [2]: 0.052 µM

Cc1ccc(-c2c3n(c(=O)n(CCCCN4CCCC(c5c[nH]c6ccc(F)cc56)C4)c2=O)CCCC3)cc1 (centres undefined)
Ki [2]: 0.233 µM

COc1ccc2[nH]cc(C3CCCN(CCCCn4c(=O)c(-c5ccccc5C)c5n(c4=O)CCCC5)C3)c2c1 (centres undefined)
Ki [2]: 0.066 µM

COc1ccc2[nH]cc(C3CCCN(CCCCn4c(=O)c(-c5ccccc5OC)c5n(c4=O)CCCC5)C3)c2c1 (centres undefined)
Ki [2]: 0.239 µM

COc1ccc(-c2c3n(c(=O)n(CCCCN4CCCC(c5c[nH]c6ccc(OC)cc56)C4)c2=O)CCCC3)cc1 (centres undefined)
Ki (D(2) dopamine receptor): 1.8 µM
Ki [2]: 0.052 µM
Ki [4]: 0.546 µM
Ki [5]: 1.19 µM
half-life at 1 µM [7]: 7 min
Ki [16]: 0.452 µM

O=c1c(-c2ccc(Cl)cc2)c2n(c(=O)n1CCCCN1CCCC(c3c[nH]c4ccc(F)cc34)C1)CCCC2 (centres undefined)
Ki [2]: 0.259 µM

Cc1ccc(-c2c3n(c(=O)n(CCCCN4CCCC(c5c[nH]c6ccccc56)C4)c2=O)CCCC3)cc1 (centres undefined)
Ki [2]: 0.05 µM

O=C1CC2(CCCC2)CC(=O)N1CCCCN1CCN(c2ncccn2)CC1 [BUSPIRONE]
half-life at 1 µM [7]: 6.6 min

COc1ccc2[nH]cc(C3CCCN(CCCCn4c(=O)c(-c5ccc(C)cc5)c5n(c4=O)CCCC5)C3)c2c1 (centres undefined)
Ki [2]: 0.321 µM

O=c1c(-c2ccc(F)cc2)c2n(c(=O)n1CCCCN1CCCC(c3c[nH]c4ccccc34)C1)CCCC2 (centres undefined)
Ki (D(2) dopamine receptor): 1.98 µM
deltaT (Mus musculus [1]): 0.3 °C
Ki [2]: 0.013 µM
deltaT (Mus musculus [3]): 0.3 °C
Ki [4]: 1.71 µM
Ki [5]: 1.28 µM
deltaT (Mus musculus [6]): 0.1 °C
half-life at 1 µM [7]: 7 min
deltaT (Mus musculus [8]): -0.2 °C
deltaT (Mus musculus [9]): -0.9 °C
deltaT (Mus musculus [10]): -0.3 °C
deltaT (Mus musculus [11]): 0.3 °C
deltaT (Mus musculus [12]): 0.1 °C
deltaT (Mus musculus [13]): -0.2 °C
Activity (Mus musculus [20]): Active
deltaT (Mus musculus [14]): 0.3 °C
Activity (Mus musculus [21]): Non-Toxic
deltaT (Mus musculus [15]): 0.5 °C
Ki [16]: 1.65 µM
deltaT (Mus musculus [17]): -0.1 °C

Cc1ccccc1-c1c2n(c(=O)n(CCCCN3CCCC(c4c[nH]c5ccc(F)cc45)C3)c1=O)CCCC2 (centres undefined)
Ki [2]: 0.142 µM

COc1ccc2[nH]cc(C3CCCN(CCCCn4c(=O)c(-c5ccc(Cl)cc5)c5n(c4=O)CCCC5)C3)c2c1 (centres undefined)
Ki [2]: 0.023 µM

O=c1c(-c2ccccc2Cl)c2n(c(=O)n1CCCCN1CCCC(c3c[nH]c4ccccc34)C1)CCCC2 (centres undefined)
Ki (D(2) dopamine receptor): 0.896 µM
deltaT (Mus musculus [1]): 0 °C
Ki [2]: 0.008 µM
deltaT (Mus musculus [3]): 0.9 °C
Ki [4]: 1.36 µM
Ki [5]: 0.609 µM
deltaT (Mus musculus [6]): -0.8 °C
half-life at 1 µM [7]: 7 min
deltaT (Mus musculus [11]): 0.3 °C
deltaT (Mus musculus [12]): 0.2 °C
deltaT (Mus musculus [14]): 0.2 °C
deltaT (Mus musculus [15]): 0.8 °C
Ki [16]: 1.03 µM
deltaT (Mus musculus [17]): 0.3 °C

COc1ccc2[nH]cc(C3CCCN(CCCCn4c(=O)c(-c5ccc(F)cc5)c5n(c4=O)CCCC5)C3)c2c1 (centres undefined)
Ki [2]: 0.076 µM

O=c1c(-c2ccccc2F)c2n(c(=O)n1CCCCN1CCCC(c3c[nH]c4ccc(F)cc34)C1)CCCC2 (centres undefined)
Ki [2]: 0.028 µM

COc1ccc2[nH]cc(C3CCCN(CCCCn4c(=O)c(-c5ccccc5Cl)c5n(c4=O)CCCC5)C3)c2c1 (centres undefined)
Ki [2]: 0.05 µM

COc1ccc(-c2c3n(c(=O)n(CCCCN4CCCC(c5c[nH]c6ccc(F)cc56)C4)c2=O)CCCC3)cc1 (centres undefined)
Ki [2]: 0.042 µM

O=c1c(-c2ccccc2)c2n(c(=O)n1CCCCN1CCCC(c3c[nH]c4ccc(F)cc34)C1)CCCC2 (centres undefined)
Ki [2]: 0.105 µM
